Patent US10738056B2 (Aduro BioTech, Inc., priority 2017, dated 2020)

Target: Human cGAS amino acids 155-522 (Homo sapiens (Human), UniProt Q8N884)
Assay: cGAS biochemical activity assay (ATP remaining, Kinase-Glo Max luminescence)
Settings: human cGAS 155-522, ATP remaining (Kinase-Glo Max); read-out: cGAS IC50

Human cGAS amino acids 155-522, sequence (Q8N884 157-522): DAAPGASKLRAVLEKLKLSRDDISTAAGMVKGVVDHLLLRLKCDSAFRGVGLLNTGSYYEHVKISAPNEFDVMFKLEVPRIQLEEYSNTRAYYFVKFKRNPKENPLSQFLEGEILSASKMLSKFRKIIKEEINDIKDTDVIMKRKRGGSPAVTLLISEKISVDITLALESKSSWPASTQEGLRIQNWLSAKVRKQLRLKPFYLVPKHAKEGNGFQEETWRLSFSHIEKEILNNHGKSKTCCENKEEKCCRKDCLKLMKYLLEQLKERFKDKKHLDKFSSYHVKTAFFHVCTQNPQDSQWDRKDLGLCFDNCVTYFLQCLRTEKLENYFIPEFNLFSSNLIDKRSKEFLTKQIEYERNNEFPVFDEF

| SMILES | IC50 |
| --- | --- |
| Cc1[nH]c2c(-c3ccccc3)c(C(F)(F)F)nn2c(=O)c1C(=O)Nc1ccnnc1 [Compound A1018, 5-methyl-7-oxo-3-phenyl-N-(pyridazin-4-yl)-2-(trifluoromethyl)-4,7-dihydropyrazolo[1,5-a]pyrimidine-6-carboxamide] | 20 to 250 µM |
| Cc1[nH]c2c(-c3ccccc3)c(C(F)(F)F)nn2c(=O)c1-c1nnc(C2CCOC2)o1 (stereo not shown) [Compound D1013, 5-methyl-3-phenyl-6-(5-(tetrahydrofuran-3-yl)-1,3,4-oxadiazol-2-yl)-2-(trifluoromethyl)pyrazolo[1,5-a]pyrimidin-7(4H)-one] | 20 to 250 µM |
| COc1ccnc(NC(=O)c2c(C)[nH]c3c(-c4ccccc4)c(C)nn3c2=O)c1 [Compound A1105, N-(4-methoxypyridin-2-yl)-2,5-dimethyl-7-oxo-3-phenyl-4,7-dihydropyrazolo[1,5-a]pyrimidine-6-carboxamide] | < 20 µM |
| Cc1[nH]c2c(-c3ccccc3)c(C(F)(F)F)nn2c(=O)c1C(N)=O [Compound A1140, 5-methyl-7-oxo-3-phenyl-2-(trifluoromethyl)-4,7-dihydropyrazolo[1,5-a]pyrimidine-6-carboxamide] | 20 to 250 µM |
| COc1cccn2nc(-c3c(C)[nH]c4c(-c5ccccc5)c(C(F)(F)F)nn4c3=O)nc12 [Compound C1110, 6-(8-methoxy-[1,2,4]triazolo[1,5-a]pyridin-2-yl)-5-methyl-3-phenyl-2-(trifluoromethyl)pyrazolo[1,5-a]pyrimidin-7(4H)-one] | 20 to 250 µM |
| COc1ccccc1-c1c(C(F)(F)F)nn2c(=O)c(-c3nc4c(OC)cccc4o3)c(C)[nH]c12 [Compound C1086, 6-(4-methoxybenzo[d]oxazol-2-yl)-3-(2-methoxyphenyl)-5-methyl-2-(trifluoromethyl)pyrazolo[1,5-a]pyrimidin-7(4H)-one] | > 250 µM |
| COc1cccc2oc(-c3c(C)[nH]c4c(-c5ccccc5)c(C(C)=O)nn4c3=O)nc12 [Compound C1210, 2-acetyl-6-(4-methoxybenzo[d]oxazol-2-yl)-5-methyl-3-phenylpyrazolo[1,5-a]pyrimidin-7(4H)-one] | < 20 µM |
| Cc1[nH]c2c(-c3ccccc3)c(C(F)(F)F)nn2c(=O)c1CC(=O)N1CCOCC1 [Compound B1002, 5-methyl-6-(2-morpholino-2-oxoethyl)-3-phenyl-2-(trifluoromethyl)pyrazolo[1,5-a]pyrimidin-7(4H)-one] | > 250 µM |
| Cc1[nH]c2c(-c3ccccc3)c(C(F)(F)F)nn2c(=O)c1C(=O)Nc1ccccc1OC(C)C [Compound A1060, N-(2-isopropoxyphenyl)-5-methyl-7-oxo-3-phenyl-2-(trifluoromethyl)-4,7-dihydropyrazolo[1,5-a]pyrimidine-6-carboxamide] | 20 to 250 µM |
| COc1cccc2oc(-c3c(C)[nH]c4c(-c5ccccc5)c(=O)[nH]n4c3=O)nc12 [Compound C1049, 6-(4-methoxybenzo[d]oxazol-2-yl)-5-methyl-3-phenylpyrazolo[1,5-a]pyrimidine-2,7(1H,4H)-dione] | 20 to 250 µM |
| COc1cccc2oc(-c3c(C)[nH]c4c(-c5ccccc5)c(OC5CCOCC5)nn4c3=O)nc12 [Compound C1080, 6-(4-methoxybenzo[d]oxazol-2-yl)-5-methyl-3-phenyl-2-((tetrahydro-2H-pyran-4-yl)oxy)pyrazolo[1,5-a]pyrimidin-7(4H)-one] | 20 to 250 µM |
| Cc1[nH]c2c(-c3ccccc3)c(C(F)(F)F)nn2c(=O)c1-c1n[nH]c(=O)o1 [Compound C1247, 5-(5-methyl-7-oxo-3-phenyl-2-(trifluoromethyl)-4,7-dihydropyrazolo[1,5-a]pyrimidin-6-yl)-1,3,4-oxadiazol-2(3H)-one] | < 20 µM |
| COc1cccc2c1nc(-c1c(C)[nH]c3c(-c4ccccc4)c(C(F)(F)F)nn3c1=O)n2CC(=O)O [Compound C1221, 2-(4-methoxy-2-(5-methyl-7-oxo-3-phenyl-2-(trifluoromethyl)-4,7-dihydropyrazolo[1,5-a]pyrimidin-6-yl)-1H-benzo[d]imidazol-1-yl)acetic acid] | 20 to 250 µM |
| Cc1[nH]c2c(-c3ccccc3)c(C(F)(F)F)nn2c(=O)c1C(=O)Nc1cccc(N(S(C)(=O)=O)S(C)(=O)=O)c1 [Compound A1046, 5-methyl-N-(3-(N-(methylsulfonyl)methylsulfonamido)phenyl)-7-oxo-3-phenyl-2-(trifluoromethyl)-4,7-dihydropyrazolo[1,5-a]pyrimidine-6-carboxamide] | 20 to 250 µM |
| COCCN(C)C(=O)c1[nH]c2c(-c3ccccc3)c(C(F)(F)F)nn2c(=O)c1-c1nc2c(OC)cccc2o1 [Compound C1179, 6-(4-methoxybenzo[d]oxazol-2-yl)-N-(2-methoxyethyl)-N-methyl-7-oxo-3-phenyl-2-(trifluoromethyl)-4,7-dihydropyrazolo[1,5-a]pyrimidine-5-carboxamide] | 20 to 250 µM |
| Cc1[nH]c2c(-c3ccccc3)c(C(F)(F)F)nn2c(=O)c1-c1nnc(N2CCCCC2CCNS(C)(=O)=O)o1 (stereo not shown) [Compound D1073, N-(2-(1-(5-(5-methyl-7-oxo-3-phenyl-2-(trifluoromethyl)-4,7-dihydropyrazolo[1,5-a]pyrimidin-6-yl)-1,3,4-oxadiazol-2-yl)piperidin-2-yl)ethyl)methanesulfonamide] | < 20 µM |

| SMILES | IC50 |
| --- | --- |
| Cc1cccc(-c2c(C(F)(F)F)nn3c(=O)c(-c4nc5c(o4)CCCC5)c(C)[nH]c23)c1 [Compound C1034, 5-methyl-6-(4,5,6,7-tetrahydrobenzo[d]oxazol-2-yl)-3-(m-tolyl)-2-(trifluoromethyl)pyrazolo[1,5-a]pyrimidin-7(4H)-one] | > 250 µM |
| Cc1[nH]c2c(-c3ccccc3)c(C(F)(F)F)nn2c(=O)c1C(=O)Nc1nc[nH]n1 [Compound A1040, 5-methyl-7-oxo-3-phenyl-N-(1H-1,2,4-triazol-3-yl)-2-(trifluoromethyl)-4,7-dihydropyrazolo[1,5-a]pyrimidine-6-carboxamide] | 20 to 250 µM |
| Cc1[nH]c2c(-c3ccccc3)c(C(F)(F)F)nn2c(=O)c1-c1nnc(-c2cccnc2)o1 [Compound D1063, 5-methyl-3-phenyl-6-(5-(pyridin-3-yl)-1,3,4-oxadiazol-2-yl)-2-(trifluoromethyl)pyrazolo[1,5-a]pyrimidin-7(4H)-one] | 20 to 250 µM |
| Cc1noc(C)c1NC(=O)c1c(C)[nH]c2c(-c3ccccc3)c(C(F)(F)F)nn2c1=O [Compound A1019, N-(3,5-dimethylisoxazol-4-yl)-5-methyl-7-oxo-3-phenyl-2-(trifluoromethyl)-4,7-dihydropyrazolo[1,5-a]pyrimidine-6-carboxamide] | > 250 µM |
| COc1cccc2oc(-c3c(OCCN(C)C)[nH]c4c(-c5ccccc5)c(C(F)(F)F)nn4c3=O)nc12 [Compound C1067, 5-(2-(dimethylamino)ethoxy)-6-(4-methoxybenzo[d]oxazol-2-yl)-3-phenyl-2-(trifluoromethyl)pyrazolo[1,5-a]pyrimidin-7(4H)-one] | > 250 µM |
| Cc1ccc(NC(=O)c2c(C)[nH]c3c(-c4ccccc4)c(C(F)(F)F)nn3c2=O)cc1 [Compound A1012, 5-methyl-7-oxo-3-phenyl-N-(p-tolyl)-2-(trifluoromethyl)-4,7-dihydropyrazolo[1,5-a]pyrimidine-6-carboxamide] | 20 to 250 µM |
| COc1cccc2oc(-c3c(C)[nH]c4c(-c5ccccc5)c(C#CC5CC5)nn4c3=O)nc12 [Compound C1228, 2-(cyclopropylethynyl)-6-(4-methoxybenzo[d]oxazol-2-yl)-5-methyl-3-phenylpyrazolo[1,5-a]pyrimidin-7(4H)-one] | 20 to 250 µM |
| Cc1[nH]c2c(-c3ccccc3)c(C#N)nn2c(=O)c1-c1nnc(C2CCCCC2)o1 [Compound D1089, 6-(5-cyclohexyl-1,3,4-oxadiazol-2-yl)-5-methyl-7-oxo-3-phenyl-4,7-dihydropyrazolo[1,5-a]pyrimidine-2-carbonitrile] | < 20 µM |
| Cc1[nH]c2c(-c3ccccc3)c(C#N)nn2c(=O)c1-c1nc2ccccc2n1C1CCCCC1 [Compound C1276, 6-(1-cyclohexyl-1H-benzo[d]imidazol-2-yl)-5-methyl-7-oxo-3-phenyl-4,7-dihydropyrazolo[1,5-a]pyrimidine-2-carbonitrile] | < 20 µM |
| COc1cc(F)c(F)cc1NC(=O)c1c(C)[nH]c2c(-c3ccccc3)c(C(F)(F)F)nn2c1=O [Compound A1080, N-(4,5-difluoro-2-methoxyphenyl)-5-methyl-7-oxo-3-phenyl-2-(trifluoromethyl)-4,7-dihydropyrazolo[1,5-a]pyrimidine-6-carboxamide] | 20 to 250 µM |
| COc1cccc2oc(-c3c(C)[nH]c4c(-c5ccccc5)c(C5CC5)nn4c3=O)nc12 [Compound C1242, 2-cyclopropyl-6-(4-methoxybenzo[d]oxazol-2-yl)-5-methyl-3-phenylpyrazolo[1,5-a]pyrimidin-7(4H)-one] | > 250 µM |
| COc1ccncc1NC(=O)c1c(C)[nH]c2c(-c3ccccc3)c(C(F)(F)F)nn2c1=O [Compound A1103, N-(4-methoxypyridin-3-yl)-5-methyl-7-oxo-3-phenyl-2-(trifluoromethyl)-4,7-dihydropyrazolo[1,5-a]pyrimidine-6-carboxamide] | 20 to 250 µM |
| COc1cccc2oc(-c3c(C4CCC(C(=O)O)CC4)[nH]c4c(-c5ccccc5)c(C(F)(F)F)nn4c3=O)nc12 (single isomer, unassigned) [Compound C1237, 4-(6-(4-methoxybenzo[d]oxazol-2-yl)-7-oxo-3-phenyl-2-(trifluoromethyl)-4,7-dihydropyrazolo[1,5-a]pyrimidin-5-yl)cyclohexane-1-carboxylic acid] | 20 to 250 µM |
| COc1cccc2oc(-c3c(C(=O)N(C)CC(=O)O)[nH]c4c(-c5ccccc5)c(C(F)(F)F)nn4c3=O)nc12 [Compound C1197, N-(6-(4-methoxybenzo[d]oxazol-2-yl)-7-oxo-3-phenyl-2-(trifluoromethyl)-4,7-dihydropyrazolo[1,5-a]pyrimidine-5-carbonyl)-N-methylglycine] | 20 to 250 µM |
| COc1ncccc1NC(=O)c1c(C)[nH]c2c(-c3ccccc3)c(C(F)(F)F)nn2c1=O [Compound A1093, N-(2-methoxypyridin-3-yl)-5-methyl-7-oxo-3-phenyl-2-(trifluoromethyl)-4,7-dihydropyrazolo[1,5-a]pyrimidine-6-carboxamide] | 20 to 250 µM |
